These results are taken from patent US9199959B2, “HIV replication inhibitor” (Shionogi & Co., Ltd., priority 2011, dated 2015).

One data set relates to HIV (HTLV-III B strain). As to the kind of experiment: HIV replication inhibition assay (MTT, MT-4 cells). The settings on record: Human immunodeficiency virus 1, MT4, 96 h, four days culture, concentration at which cell cytotoxicity by virus is inhibited 50%. It is filed as cell-based. On the procedure: HIV (HTLV-III B strain) persistent infected human T cell strain Molt-4 clone 8 was cultured in 10% Fetal Bovine Serum-containing RPMI-1640 medium and the supernatant was filtrated, then the virus titer was measured and the solution was stored at −80° C. Each anti-human immunodeficiency virus active substance was diluted with the above cultured medium to the designated concentration, which was dispensed into 96 well micro plate by 50 μL. Next, a MT-4 cell suspended liquid was dispensed by 100 μL (2.5×10^4 cells), then the above HIV-containing supernatant diluted with the above cultured medium was added thereto by 50 μL (60 pfu (plaque forming unit)).
The obtained mixture was cultured at 37° C. in CO2 incubator for four days, then 3-(4,5-dimehylthiazole-2-yl)-2,5-diphenyltetrazolynium bromide (MTT) 5 mg/mL in PBS was added to each well by 30 μL, followed by 1 hr-cultivation. In this step, as formazan was precipitated by reduction of MTT in living cells, the cell supernatant was removed from all well by 150 μL, then a 150 μL of solution (10% Triton X-100 and […]) was added thereto, followed by shaking with a plate mixer, to elute formazan. The formazan was measured with a microreader at OD: 560 nm and 690 nm (wavelength) and the result was compared with the reference. EC50 means the compound concentration at which cell cytotoxicity by virus is inhibited 50%.

Data set [1] is described as follows: Metabolism stability test, rat liver microsomes. Type of data set: in vitro ADME. The settings on record: amount at 0 minute = 100%.
A short description of data set [2]: Solubility test, 1% DMSO addition, artificial intestinal juice pH 6.8. It is filed as physicochemical. Conditions: artificial intestinal juice with 1% DMSO, fassgf or other biorelevant, kinetic from dmso stock; pH 6.8, 1% DMSO addition, 16 hours at 25° C. On the procedure:
The solubility of each compound was determined under 1% DMSO addition conditions. A 10 mmol/L solution of the compound was prepared with DMSO, and 6 μL of the solution was added to 594 μL of an artificial intestinal juice (water and a 118 mL solution of 0.2 mol/L NaOH reagent are added to 250 mL of 0.2 mol/L potassium dihydrogen phosphate reagent to reach 1000 mL) with a pH of 6.8. The mixture is left standing for 16 hours at 25° C., and the mixture is vacuum-filtered. The filtrate is two-fold diluted with methanol/water=1/1 (v/v), and the compound concentration in the filtrate is measured with HPLC or LC/MS/MS by the absolute calibration method.

Data set [3] has as its system Salmonella typhimurium TA98 strain, TA100 strain. It is filed as cell-based. Conditions: Salmonella typhimurium TA98, TA100, non-metabolism and metabolism activating condition. As to the method:
The mutagenicity of the compound of the present invention was assayed.
20 μL of freezing-stored rat typhoid bacillus (Salmonella typhimurium TA98 strain, TA100 strain) was inoculated on 10 mL of a liquid nutrient medium (2.5% Oxoid nutrient broth No. 2), and this was cultured before shaking at 37° C. for 10 hours. 9 mL of a bacterial solution of the TA98 strain was centrifuged (2000×g, 10 minutes) to remove a culturing solution. The bacteria was suspended in F buffer (K2HPO4: 3.5 g/L, KH2PO4: 1 g/L, (NH4)2SO4: 1 g/L, trisodium citrate dehydrate: 0.25 g/L, MgSO4.7H2O: 0.1 g/L), and the suspension was added to 110 mL of an Exposure medium (Micro F buffer containing Biotin: 8 μg/mL, histidine: 0.2 μg/mL, glucose: 8 mg/mL). The TA100 strain was added to 120 mL of the Exposure medium per 3.16 mL of the bacterial solution to prepare a test bacterial solution. […] of a test substance DMSO solution (several stage dilution from maximum dose 50 mg/mL at 2- to 3-fold ratio), DMSO as a negative control, 50 μg/mL of 4-nitroquinoline-1-oxide DMSO solution for the TA98 strain, 0.25 μg/mL of 2-(2-furyl)-3-(5-nitro-2-furyl)acrylamide DMSO solution for the TA100 strain each under the non-metabolism activating condition, 40 μg/mL of 2-aminoanthracene DMSO solution for the TA98 strain, 20 μg/mL of 2-aminoanthracene DMSO solution for the TA100 strain each under the metabolism activating condition all as a positive control, and 588 μL of the test bacterial solution (a mixed solution of 498 μL of the test bacterial solution and 90 μL of S9 mix under the metabolism activating condition) were mixed, and this was shaking-cultured at 37° C. for 90 minutes. […] Since a well containing a bacterium which has obtained the proliferation ability by mutation of an amino acid (histidine) synthesizing enzyme gene turns from purple to yellow due to a pH change, the bacterium proliferation well which has turned to yellow in 48 wells per dose is counted, and was assessed by comparing with a negative control group. […]

Data set [4] deals with T1, human ether-a-go-go related gene (hERG) channel (Homo sapiens, UniProt Q12809).
T1 construct: expressed in transfected cells; host or cells: HEK293
As to the kind of experiment: hERG test, whole cell patch clamp. It is filed as cell-based. The settings on record: HEK293 cells expressing hERG channel. From the text:
For the purpose of assessing risk of an electrocardiogram QT interval prolongation, effects on delayed rectifier K+ current (IKr), which plays an important role in the ventricular repolarization process of the compound of the present invention, was studied using HEK293 cells expressing human ether-a-go-go related gene (hERG) channel.
After a cell was retained at a membrane potential of −80 mV by whole cell patch clamp method using an automated patch clamp system (PatchXpress 7000A, Axon Instruments Inc.), IKr induced by depolarization pulse stimulation at +40 mV for 2 seconds and, further, repolarization pulse stimulation at −50 mV for 2 seconds was recorded. […] From the recording IKr, an absolute value of the tail peak current was measured based on the current value at the resting membrane potential using an analysis software (DataXpress ver. 1, Molecular Devices Corporation). Further, the inhibition relative to the tail peak current before application of the test substance was calculated, and compared with the vehicle-applied group (0.1% dimethyl sulfoxide solution) to assess influence of the test substance on IKr.

Some results are limits rather than exact numbers.

T1 sequence (Q12809 whole entry): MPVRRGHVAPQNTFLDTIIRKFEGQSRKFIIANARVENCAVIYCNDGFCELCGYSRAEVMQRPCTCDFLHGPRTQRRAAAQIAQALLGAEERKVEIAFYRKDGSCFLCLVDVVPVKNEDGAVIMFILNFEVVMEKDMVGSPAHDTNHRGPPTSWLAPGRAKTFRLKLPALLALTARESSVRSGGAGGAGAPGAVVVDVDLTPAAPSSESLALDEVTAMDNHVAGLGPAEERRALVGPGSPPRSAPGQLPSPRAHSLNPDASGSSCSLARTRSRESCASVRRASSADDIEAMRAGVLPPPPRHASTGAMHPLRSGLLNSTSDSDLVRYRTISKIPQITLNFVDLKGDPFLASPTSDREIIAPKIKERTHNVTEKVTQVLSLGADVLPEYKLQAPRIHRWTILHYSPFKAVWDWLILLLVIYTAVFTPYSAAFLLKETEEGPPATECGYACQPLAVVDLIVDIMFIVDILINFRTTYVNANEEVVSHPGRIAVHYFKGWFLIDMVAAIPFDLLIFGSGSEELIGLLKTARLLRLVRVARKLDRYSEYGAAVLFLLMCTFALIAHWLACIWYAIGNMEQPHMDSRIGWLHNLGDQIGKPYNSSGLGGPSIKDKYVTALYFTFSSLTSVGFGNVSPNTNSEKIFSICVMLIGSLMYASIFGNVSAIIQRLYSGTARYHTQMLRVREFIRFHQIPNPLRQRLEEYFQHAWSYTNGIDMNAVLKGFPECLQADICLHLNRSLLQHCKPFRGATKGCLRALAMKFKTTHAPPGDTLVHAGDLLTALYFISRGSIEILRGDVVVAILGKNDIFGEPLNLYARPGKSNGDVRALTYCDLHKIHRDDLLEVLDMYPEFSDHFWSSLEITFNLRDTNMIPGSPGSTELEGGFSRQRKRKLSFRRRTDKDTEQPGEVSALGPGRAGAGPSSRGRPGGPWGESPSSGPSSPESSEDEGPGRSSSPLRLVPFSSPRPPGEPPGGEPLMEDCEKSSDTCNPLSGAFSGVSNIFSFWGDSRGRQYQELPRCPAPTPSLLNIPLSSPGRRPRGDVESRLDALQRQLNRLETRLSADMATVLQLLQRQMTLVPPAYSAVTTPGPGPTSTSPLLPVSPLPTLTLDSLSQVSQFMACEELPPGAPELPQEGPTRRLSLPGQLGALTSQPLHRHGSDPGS

On to `CC(=O)Nc1c(C)c(C(OC(C)(C)C)C(=O)O)c(-c2ccc(C)c(C)c2)c(C)c1-c1ccc(C)c(C)c1` (centres unmarked) [Compound I-6], for which the EC50 in the data set with HIV (HTLV-III B strain) was determined as 7.8 nM. Besides, the “remaining amount of compound in liver microsomes of rat” value in data set [1] is listed as 58%. This compound yielded a solubility at 16 h in data set [2] of at least 50 µM. Further, the mutagenicity entry in data set [3] was “negative”. Besides, the “inhibition ratio of IKr tail peak current” value in data set [4] is listed as 3.5%.
